The results in this text go back to patent publication US20250313572A1, “MACROCYCLIC MCL-1 INHIBITORS AND METHODS OF USE” (AbbVie Inc., priority 2017, published 2025).

Like-named read-outs stand apart in the source and are kept apart here.

In test [1] the test system is AMO-1 human multiple myeloma tumor cell line. Kind of test: AMO-1 cell viability assay (CellTiter-Glo, 24 hours). The test is classed as cell-based. The following applies: Homo sapiens, AMO1, 24 h, read-out: AMO-1 Viability IC50 (μM, 10% FBS), 10% FBS, 24 hours of compound treatment.
The target in the next test is GST-MCL-1 (Homo sapiens, UniProt Q07820). The experiment in a line: TR-FRET MCL-1 binding assay (competition with probe F-Bak). Put shortly: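 Displacement of F-Bak from GST-MCL-1 is detected by time-resolved FRET with a Tb-labelled anti-GST antibody, with excitation 340/35 nm and emission 520/525 and 495/510 nm, after 2 hours at room temperature. Compounds were titrated in 11 three-fold steps starting at 25 μM final, in buffer alone or in 10% HS.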
Sequence of GST-MCL-1 (Q07820 whole entry): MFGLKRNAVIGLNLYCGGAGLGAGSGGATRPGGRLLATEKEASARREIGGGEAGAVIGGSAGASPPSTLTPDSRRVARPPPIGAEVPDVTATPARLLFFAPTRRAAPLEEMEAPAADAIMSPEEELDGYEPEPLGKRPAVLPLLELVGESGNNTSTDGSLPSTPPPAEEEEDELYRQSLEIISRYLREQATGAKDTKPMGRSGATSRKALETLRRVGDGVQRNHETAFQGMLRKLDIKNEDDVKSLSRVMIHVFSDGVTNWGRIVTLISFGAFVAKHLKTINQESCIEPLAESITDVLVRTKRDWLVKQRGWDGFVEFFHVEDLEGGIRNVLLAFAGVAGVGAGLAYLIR
(In general: TR-FRET usually uses a lanthanide donor and a delayed reading to cut background.)

Test [2] deals with NCI-H929 human multiple myeloma tumor cell line. The experiment in a line: NCI-H929 cell viability assay (CellTiter-Glo, 24 hours). Format: cell-based. The following applies: Homo sapiens, NCI-H929, 24 h, read-out: H929 Viability IC50 (μM, 10% FBS), 10% FBS, 24 hours of compound treatment. (Cellular ATP, detected with luciferase, serves as a proxy for viable cell number.)
Method: Each concentration was tested in duplicate at least 3 independent times. A luminescent signal proportional to the number of viable cells following 24 hours of compound treatment was determined using the CellTiter-Glo® Luminescent Cell Viability Assay according to the manufacturer's recommendations (Promega Corp., Madison, WI). The plates were read in a Perkin Elmer Envision using a Luminescence protocol. To generate dose response curves the data is normalized to percent viability by setting the averages of the staurosporine (10 μM) and DMSO only control wells to 0% and 100% viability respectively.
[3] abbreviates: MCL-1 Binding Ki (nM, 10% HS), in the presence of 10% HS (human serum).
The mark [4] stands for this setting: without HS, read-out: MCL-1 Binding Ki.

For the compound `Cc1c(Cl)c2c(Cl)c(C)c1-c1c(-c3ccc(F)cc3)sc3ncnc(c13)O[C@@H](C(=O)O)Cc1cc(ccc1OCc1ccnc(N3CC4CC(C4)C3)n1)OC[C@@H](CN1CCN(C)CC1)O2` [Example 171, (7R,16R)-10-{[2-(3-azabicyclo[3.1.1]heptan-3-yl)pyrimidin-4-yl]methoxy}-19,23-dichloro-1-(4-fluorophenyl)-20,22-dimethyl-16-[(4-methylpiperazin-1-yl)methyl]-7,8,15,16-tetrahydro-18,21-etheno-13,9-(metheno)-6,14,17-trioxa-2-thia-3,5-diazacyclononadeca[1,2,3-cd]indene-7-carboxylic Acid], the IC50 (commonly the concentration that gives 50% inhibition) is 0.00112 µM in test [1] and 0.00757 µM in test [2]. Besides, the results for the Ki at GST-MCL-1 (setting [3]) and at GST-MCL-1 (setting [4]) were 3.98 nM and 0.1 nM, respectively.
As to `COC[C@H](COc1ccc(-c2nccc(COc3ccc4cc3C[C@H](C(=O)O)Oc3ncnc5sc(-c6ccc(F)cc6)c(c35)-c3c(C)c(Cl)c(c(Cl)c3C)O[C@H](CN3CCN(C)CC3)CO4)n2)cc1)OC` [Example 137, (7R,16R)-19,23-dichloro-10-[(2-{4-[(2R)-2,3-dimethoxypropoxy]phenyl}pyrimidin-4-yl)methoxy]-1-(4-fluorophenyl)-20,22-dimethyl-16-[(4-methylpiperazin-1-yl)methyl]-7,8,15,16-tetrahydro-18,21-etheno-9,13-(metheno)-6,14,17-trioxa-2-thia-3,5-diazacyclononadeca[1,2,3-cd]indene-7-carboxylic acid], the IC50 stood at 0.000394 µM in test [1] and 0.000286 µM in test [2]. The Ki (as a rule, a dissociation constant, usually derived from enzyme kinetics or from competition with a known ligand) on GST-MCL-1 (setting [3]) was found to be 0.999 nM; on GST-MCL-1 (setting [4]), 0.031 nM.
With `COCCOCCOCC1(F)CC=C(c2nccc(COc3ccc4cc3C[C@H](C(=O)O)Oc3ncnc5sc(C6CCC6)c(c35)-c3c(C)c(Cl)c(c(Cl)c3C)O[C@H](CN3CCN(C)CC3)CO4)n2)CC1` (single isomer, unassigned) [Example 130, (7R,16R)-19,23-dichloro-1-cyclobutyl-10-({2-[(4R*)-4-fluoro-4-{[2-(2-methoxyethoxy)ethoxy]methyl}cyclohex-1-en-1-yl]pyrimidin-4-yl}methoxy)-20,22-dimethyl-16-[(4-methylpiperazin-1-yl)methyl]-7,8,15,16-tetrahydro-18,21-etheno-13,9-(metheno)-6,14,17-trioxa-2-thia-3,5-diazacyclononadeca[1,2,3-cd]indene-7-carboxylic Acid], the results for the IC50 in test [1] and in test [2] were 0.000309 µM and 0.000489 µM, respectively. The Ki on GST-MCL-1 (setting [3]) came out at 1.74 nM; at GST-MCL-1 (setting [4]), 0.026 nM.
With `COCCOCCOCCOCCO[C@H]1CC[C@H](c2nccc(COc3ccc4cc3C[C@H](C(=O)O)Oc3ncnc5sc(-c6ccc(F)cc6)c(c35)-c3c(C)c(Cl)c(c(Cl)c3C)O[C@H](CN3CCN(C)CC3)CO4)n2)CC1` [Example 69, (7R,16R)-19,23-dichloro-1-(4-fluorophenyl)-20,22-dimethyl-16-[(4-methylpiperazin-1-yl)methyl]-10-[(2-{(1r,4r)-4-[(2,5,8,11-tetraoxatridecan-13-yl)oxy]cyclohexyl}pyrimidin-4-yl)methoxy]-7,8,15,16-tetrahydro-18,21-etheno-13,9-(metheno)-6,14,17-trioxa-2-thia-3,5-diazacyclononadeca[1,2,3-cd]indene-7-carboxylic Acid], the IC50 in test [1] came to 0.000302 µM; in test [2], 0.000615 µM. Also, the Ki came out at 0.053 nM at GST-MCL-1 (setting [3]) and 0.012 nM at GST-MCL-1 (setting [4]).
